Here are results for eleven molecules from PubChem BioAssay AID1259407 (Chemical Carcinogenesis Research Information System (CCRIS), 2018).

The subject of this series is CCRIS mutagenicity, Ames/micronucleus/aberration tests. Description: CCRIS mutagenicity studies.
[1] abbreviates: Test System: AMES SALMONELLA TYPHIMURIUM, Strain/Indicator: TA98, Metabolic Activation: NONE, Method: STANDARD PLATE.
Setting [2] is: Test System: AMES SALMONELLA TYPHIMURIUM, Strain/Indicator: TA100, Metabolic Activation: NONE, Method: STANDARD PLATE.
The mark [3] stands for this setting: Test System: AMES SALMONELLA TYPHIMURIUM, Strain/Indicator: TA98, Metabolic Activation: RAT, LIVER, S-9, AROCLOR 1254, Method: STANDARD PLATE.
Where [4] appears, read: Test System: AMES SALMONELLA TYPHIMURIUM, Strain/Indicator: TA100, Metabolic Activation: RAT, LIVER, S-9, AROCLOR 1254, Method: STANDARD PLATE.

SMILES strings stand for the structures. Activity calls are given as the source filed them. How the calls were made is not given here.

For the molecule `O=Nc1ccccc1-c1ccccc1`, the mutagenic call under setting [1] was “inactive; negative” and the mutagenic call under setting [2] was “active; positive”.

For `[CH3][Pb]([CH3])([CH3])[CH3]`, the mutagenic call reads like this: (Test System: AMES SALMONELLA TYPHIMURIUM, Strain/Indicator: TA98, Metabolic Activation: HAMSTER, LIVER, S-9, AROCLOR 1254, Method: PREINCUBATION) “inactive; negative”; (Test System: AMES SALMONELLA TYPHIMURIUM, Strain/Indicator: TA98, Metabolic Activation: NONE, Method: PREINCUBATION) “inactive; negative”; (Test System: AMES SALMONELLA TYPHIMURIUM, Strain/Indicator: TA98, Metabolic Activation: RAT, LIVER, S-9, AROCLOR 1254, Method: PREINCUBATION) “inactive; negative”; (Test System: AMES SALMONELLA TYPHIMURIUM, Strain/Indicator: TA100, Metabolic Activation: HAMSTER, LIVER, S-9, AROCLOR 1254, Method: PREINCUBATION) “inactive; negative”; (Test System: AMES SALMONELLA TYPHIMURIUM, Strain/Indicator: TA100, Metabolic Activation: NONE, Method: PREINCUBATION) “inactive; negative”; (Test System: AMES SALMONELLA TYPHIMURIUM, Strain/Indicator: TA100, Metabolic Activation: RAT, LIVER, S-9, AROCLOR 1254, Method: PREINCUBATION) “inactive; negative”. For the same molecule, the mutagenic call is “inactive; negative” (Test System: AMES SALMONELLA TYPHIMURIUM, Strain/Indicator: TA1535, Metabolic Activation: HAMSTER, LIVER, S-9, AROCLOR 1254, Method: PREINCUBATION); “inactive; negative” (Test System: AMES SALMONELLA TYPHIMURIUM, Strain/Indicator: TA1535, Metabolic Activation: NONE, Method: PREINCUBATION); “inactive; negative” (Test System: AMES SALMONELLA TYPHIMURIUM, Strain/Indicator: TA1535, Metabolic Activation: RAT, LIVER, S-9, AROCLOR 1254, Method: PREINCUBATION); “inactive; negative” (Test System: AMES SALMONELLA TYPHIMURIUM, Strain/Indicator: TA1537, Metabolic Activation: HAMSTER, LIVER, S-9, AROCLOR 1254, Method: PREINCUBATION); “inactive; negative” (Test System: AMES SALMONELLA TYPHIMURIUM, Strain/Indicator: TA1537, Metabolic Activation: NONE, Method: PREINCUBATION); “inactive; negative” (Test System: AMES SALMONELLA TYPHIMURIUM, Strain/Indicator: TA1537, Metabolic Activation: RAT, LIVER, S-9, AROCLOR 1254, Method: PREINCUBATION).

Consider `Cc1c([N+](=O)[O-])cnc2c1nc1c(C)cccn12`, for which the mutagenic call under setting [1] was “active; positive”; the mutagenic call (Test System: AMES SALMONELLA TYPHIMURIUM, Strain/Indicator: TA98, Metabolic Activation: RAT, LIVER, CYTOSOL, AROCLOR 1254, Method: STANDARD PLATE) is “active; positive”; the mutagenic call (Test System: AMES SALMONELLA TYPHIMURIUM, Strain/Indicator: TA98, Metabolic Activation: RAT, LIVER, MICROSOMES, AROCLOR 1254, Method: STANDARD PLATE) is “active; positive”; the mutagenic call under setting [3] was “active; positive”.

`CN(C=O)N=O`: the mutagenic call runs as follows: (Test System: AMES SALMONELLA TYPHIMURIUM, Strain/Indicator: TA1535, Metabolic Activation: NONE, Method: STANDARD PLATE) “active; positive”; (Test System: E. COLI, Strain/Indicator: WU3610, Metabolic Activation: NONE, Method: SUSPENSION/PLATE) “active; positive”.

On to `C=CCc1cc(OC)c(OC)c(OC)c1`, for which, for the setting “Test System: UDS RAT HEPATOCYTES, Strain/Indicator: THY INCORP, Metabolic Activation: NONE, Method: LIQUID SCINTILLATION COUNTING”, the mutagenic call is “active; positive”.

`O=C1C=CC(=O)N1`: the mutagenic call was “active; positive” (Test System: AMES SALMONELLA TYPHIMURIUM, Strain/Indicator: TA98, Metabolic Activation: HAMSTER, LIVER, S-9, AROCLOR 1254, Method: STANDARD PLATE); “active; positive” under setting [1]; “active; positive” under setting [3]; “inactive; negative” (Test System: AMES SALMONELLA TYPHIMURIUM, Strain/Indicator: TA100, Metabolic Activation: HAMSTER, LIVER, S-9, AROCLOR 1254, Method: STANDARD PLATE); “inactive; negative” under setting [2]; “active; positive” under setting [4]. In addition, the mutagenic call is, setting by setting: (Test System: MOUSE LYMPHOMA, Strain/Indicator: L5178Y (TK+/TK-), Metabolic Activation: NONE, Method: SUSPENSION/PLATE) “active; positive. reevaluation of results: inconclusive”; (Test System: MOUSE LYMPHOMA, Strain/Indicator: L5178Y (TK+/TK-), Metabolic Activation: RAT, LIVER, S-9, AROCLOR 1254, Method: SUSPENSION/PLATE) “active; positive. reevaluation of results: positive”.

Regarding `CS(=O)(=O)OCCCNCCCOS(C)(=O)=O`, the mutagenic call by setting is: (Test System: AMES SALMONELLA TYPHIMURIUM, Strain/Indicator: TA98, Metabolic Activation: S-9, Method: STANDARD PLATE) “inactive; negative”; (Test System: AMES SALMONELLA TYPHIMURIUM, Strain/Indicator: TA100, Metabolic Activation: S-9, Method: STANDARD PLATE) “inactive; negative”; (Test System: AMES SALMONELLA TYPHIMURIUM, Strain/Indicator: TA102, Metabolic Activation: S-9, Method: STANDARD PLATE) “inactive; negative”; (Test System: AMES SALMONELLA TYPHIMURIUM, Strain/Indicator: TA1537, Metabolic Activation: S-9, Method: STANDARD PLATE) “active; positive”; (Test System: E. COLI, Strain/Indicator: WP2 (HCR), Metabolic Activation: S-9, Method: STANDARD PLATE) “active; positive”.

For `CC(C)COS(=O)(=O)c1ccccc1`, the mutagenic call under setting [1] was “active; positive”; the mutagenic call (Test System: AMES SALMONELLA TYPHIMURIUM, Strain/Indicator: TA98, Metabolic Activation: RAT, LIVER, S-9, Method: STANDARD PLATE) was “active; positive”; the mutagenic call (Test System: AMES SALMONELLA TYPHIMURIUM, Strain/Indicator: TA100, Metabolic Activation: RAT, LIVER, S-9, Method: STANDARD PLATE) was “active; positive”.

In the case of `CCC[C@H]1O[C@H]1c1ccccc1`, the mutagenic call (Test System: AMES SALMONELLA TYPHIMURIUM, Strain/Indicator: TA98, Metabolic Activation: NONE, Method: PREINCUBATION (PHOSPHATE-BUFFERED KCL OR SOLUTE-FREE WATER MEDIA)) was “inactive; negative”; the mutagenic call (Test System: AMES SALMONELLA TYPHIMURIUM, Strain/Indicator: TA100, Metabolic Activation: NONE, Method: PREINCUBATION (PHOSPHATE-BUFFERED KCL OR SOLUTE-FREE WATER MEDIA)) is “inactive; negative”; the mutagenic call (Test System: AMES SALMONELLA TYPHIMURIUM, Strain/Indicator: TA104, Metabolic Activation: NONE, Method: PREINCUBATION (PHOSPHATE-BUFFERED KCL OR SOLUTE-FREE WATER MEDIA)) is “inactive; negative”.

`CCN(N)CC`: the mutagenic call is “inactive; negative” (Test System: AMES SALMONELLA TYPHIMURIUM, Strain/Indicator: TA100, Metabolic Activation: NONE, Method: PREINCUBATION (11 HR GROWTH PERIOD FOR BACTERIA)); “inactive; negative” under setting [2]; “inactive; negative” under setting [4]; “inactive; negative” (Test System: AMES SALMONELLA TYPHIMURIUM, Strain/Indicator: TA100, Metabolic Activation: RAT, LIVER, S-9, PCB, Method: PREINCUBATION (11 HR GROWTH PERIOD FOR BACTERIA)); “active; positive” (Test System: AMES SALMONELLA TYPHIMURIUM, Strain/Indicator: TA102, Metabolic Activation: NONE, Method: PREINCUBATION (5 HR GROWTH PERIOD FOR BACTERIA)); “inactive; negative” (Test System: AMES SALMONELLA TYPHIMURIUM, Strain/Indicator: TA102, Metabolic Activation: NONE, Method: PREINCUBATION (7 OR 11 HR GROWTH PERIOD FOR BACTERIA)). Moreover, the mutagenic call runs as follows: (Test System: AMES SALMONELLA TYPHIMURIUM, Strain/Indicator: TA102, Metabolic Activation: NONE, Method: STANDARD PLATE) “inactive; negative”; (Test System: AMES SALMONELLA TYPHIMURIUM, Strain/Indicator: TA102, Metabolic Activation: RAT, LIVER, S-9, AROCLOR 1254, Method: STANDARD PLATE) “inactive; negative”; (Test System: AMES SALMONELLA TYPHIMURIUM, Strain/Indicator: TA102, Metabolic Activation: RAT, LIVER, S-9, PCB, Method: PREINCUBATION (5 OR 7 HR GROWTH PERIOD FOR BACTERIA)) “inactive; negative”.

For the molecule `CC(=O)[O][Sn]([c]1ccccc1)([c]1ccccc1)[c]1ccccc1`, the mutagenic call (End Point: IN VIVO MICRONUCLEUS, Test System: BONE MARROW POLYCHROMATIC ERYTHROCYTES, Species: MOUSE, Strain/Sex: SWISS/MALE, FEMALE, Route: IP 2X IN AQUEOUS SUSPENSION WITHIN 24 HR) is “active; positive”.
